pKi: −log10 of the molar value.
Key:
Cannabinoid receptor 2 [1] = biological target: T1, Cannabinoid receptor 2 (Homo sapiens, UniProt P34972); assay: In vitro inhibitory activity towards human cannabinoid receptors 2 using fluorescence assay
Cannabinoid receptor 2 [2] = biological target: T1, Cannabinoid receptor 2; assay: Percentage ([35S]GTP-gamma-S binding was determined from basal towards human cannabinoid receptor 2 at 1 uM concentration […]; assay type: functional
Cannabinoid receptor 2 [3] = biological target: T1, Cannabinoid receptor 2; assay: In vitro inhibitory activity towards human cannabinoid receptors 2 using fluorescence assay at 10 uM concentration; set-up: scale not given: the % may be the effect or the level left

T1 sequence (P34972 whole entry): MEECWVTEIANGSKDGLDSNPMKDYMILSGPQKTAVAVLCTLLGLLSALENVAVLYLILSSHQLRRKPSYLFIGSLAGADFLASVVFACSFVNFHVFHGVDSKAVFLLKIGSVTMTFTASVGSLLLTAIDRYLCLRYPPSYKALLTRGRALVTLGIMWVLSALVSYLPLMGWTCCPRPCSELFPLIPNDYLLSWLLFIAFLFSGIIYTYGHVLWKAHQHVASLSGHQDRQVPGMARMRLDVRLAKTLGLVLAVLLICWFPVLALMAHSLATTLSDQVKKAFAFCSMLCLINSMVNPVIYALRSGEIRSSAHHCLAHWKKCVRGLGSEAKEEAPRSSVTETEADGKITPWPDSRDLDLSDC

Compound | pKi (Cannabinoid receptor 2 [1]) | Activity (Cannabinoid receptor 2 [2]) [%] | Activity (Cannabinoid receptor 2 [3]) [%]
CCCn1c(C)c(C(=O)c2cc(NC(=O)CN)cc3ccccc23)c2ccccc21 | 6.38 |  | 
CCCn1c(C)c(C(=O)c2cccc3ccccc23)c2ccccc21 |  | 142 | 
CCCn1c(C)c(C(=O)c2cc(NC(=O)CNc3ccc([N+](=O)[O-])c4nonc34)cc3ccccc23)c2ccccc21 |  |  | 25
CCCn1c(C)c(C(=O)c2cc(N)cc3ccccc23)c2ccccc21 | 6.72 | 151 | 
CCCn1c(C)c(C(=O)c2cc([N+](=O)[O-])cc3ccccc23)c2ccccc21 | 6.84 | 134 | 

Reference: ChEMBL document CHEMBL1142781, “Chemical modification of the naphthoyl 3-position of JWH-015: in search of a fluorescent probe to the cannabinoid CB2 receptor” (Bioorg Med Chem Lett, 2005)
